The results in this text go back to patent US7071231B2, “Naphthalene ureas as glucose uptake enhancers” (Telik, Inc., priority 1999, dated 2006).

Series [1] addresses T1, EGFR (Homo sapiens, UniProt P00533).
T1 construct: endogenous in cells; host or cells: A431
Put plainly: Selectivity: EGFR phosphorylation in A431 cells. The note with it: in the presence or absence of EGF (2.5 ng/ml). The class given is cell-based. Here is the method: Selectivity vs. EGFR, PDGFR and IGFR
In order to determine the selectivity of these compounds for the insulin receptor, their effects on other receptors that share a similar mechanism of activation with the insulin receptor were examined. Human epidermoid carcinoma (A431) cells were plated at a density of 2×10^5 cells per well in 6-well dishes in DMEM with 10% FBS and L-Glutamine and allowed to grow to 75% confluence. Prior to the experiment, the cells were serum-starved overnight with DMEM with 0.1% BSA. The following morning, the cells were washed with PBS and the medium was replaced with 150 mM NaCl, 1.7 mM KCl, 0.9 mM CaCl2, K2HPO4 (pH 7.4), to which was added either the experimental compound or its vehicle (DMSO). Epidermal Growth Factor (EGF) or its vehicle (0.01% BSA) was diluted in the assay buffer (containing test compound or vehicle respectively) to a final concentration of 2.5 ng/ml. After incubating for 15 min, the cells were washed with cold PBS twice and lysed in 50 mM Tris.HCl pH 7.4, 150 mM NaCl, 0.25% sodium deoxycholate, 1% NP40, 1 mM EGTA, 1 mM PMSF, 1 mM Na3VO4, 1 mM NaF, 1 ug/ml each of Aprotinin, Leupeptin and Pepstatin. The cell lysates were clarified by centrifugation at 12000 rpm, and the supernatants were estimated for protein concentration. […]

In series [2] the target is insulin-like growth factor type 1 (IGF-1) receptor (Homo sapiens, UniProt P08069). Put plainly: Selectivity: IGF-1 receptor phosphorylation. It counts as cell-based. As to conditions: in the absence or presence of IGF-1.
Chain of insulin-like growth factor type 1 (IGF-1) receptor (P08069 741-1367 limits assumed): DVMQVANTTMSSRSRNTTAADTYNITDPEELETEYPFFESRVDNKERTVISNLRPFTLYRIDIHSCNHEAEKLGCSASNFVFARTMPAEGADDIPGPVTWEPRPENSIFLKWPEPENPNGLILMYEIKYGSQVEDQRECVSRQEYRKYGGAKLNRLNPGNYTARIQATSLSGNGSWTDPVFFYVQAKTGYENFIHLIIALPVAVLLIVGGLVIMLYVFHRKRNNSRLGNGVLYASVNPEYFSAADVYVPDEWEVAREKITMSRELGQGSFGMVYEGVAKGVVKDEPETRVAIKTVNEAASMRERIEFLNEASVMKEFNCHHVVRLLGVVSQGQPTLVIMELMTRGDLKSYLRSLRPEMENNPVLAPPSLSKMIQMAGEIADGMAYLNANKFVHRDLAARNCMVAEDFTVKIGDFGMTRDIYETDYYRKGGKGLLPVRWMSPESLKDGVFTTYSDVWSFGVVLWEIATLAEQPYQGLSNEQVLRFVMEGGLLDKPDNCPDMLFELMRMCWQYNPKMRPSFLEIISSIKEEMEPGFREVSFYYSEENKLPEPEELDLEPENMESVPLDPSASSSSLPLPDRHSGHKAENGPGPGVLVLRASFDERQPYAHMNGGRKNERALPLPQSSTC
Chain of insulin-like growth factor type 1 (IGF-1) receptor (P08069 31-736 partner limits assumed): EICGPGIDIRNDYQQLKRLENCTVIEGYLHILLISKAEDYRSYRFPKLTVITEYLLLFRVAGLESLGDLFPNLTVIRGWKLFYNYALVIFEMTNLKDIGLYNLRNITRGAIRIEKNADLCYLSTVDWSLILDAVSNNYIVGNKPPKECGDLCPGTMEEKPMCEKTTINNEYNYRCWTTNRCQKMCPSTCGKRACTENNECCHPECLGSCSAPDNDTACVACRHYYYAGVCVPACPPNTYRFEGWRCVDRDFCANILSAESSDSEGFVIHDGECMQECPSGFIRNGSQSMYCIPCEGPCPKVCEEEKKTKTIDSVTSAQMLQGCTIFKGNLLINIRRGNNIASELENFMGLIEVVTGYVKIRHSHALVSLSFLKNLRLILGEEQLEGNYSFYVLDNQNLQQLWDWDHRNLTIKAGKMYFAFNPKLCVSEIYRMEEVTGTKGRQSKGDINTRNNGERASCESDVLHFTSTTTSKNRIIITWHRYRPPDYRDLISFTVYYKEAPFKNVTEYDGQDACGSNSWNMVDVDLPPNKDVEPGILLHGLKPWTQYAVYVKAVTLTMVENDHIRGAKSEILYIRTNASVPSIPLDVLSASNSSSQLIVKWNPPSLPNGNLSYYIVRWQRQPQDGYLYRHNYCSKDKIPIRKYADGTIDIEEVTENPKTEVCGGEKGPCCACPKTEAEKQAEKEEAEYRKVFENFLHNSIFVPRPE
The target in series [3] is CYP2C9 (Homo sapiens, UniProt P11712). As to the kind of experiment: P450 interactions: CYP2C9 inhibition. The note with it: human cytochromes P450. It counts as in vitro ADME. From the text: (§1) A major pathway for elimination of drugs from the body, which may limit their effectiveness, is the cytochrome P450 system of the liver.
Chain of CYP2C9 (P11712 whole entry): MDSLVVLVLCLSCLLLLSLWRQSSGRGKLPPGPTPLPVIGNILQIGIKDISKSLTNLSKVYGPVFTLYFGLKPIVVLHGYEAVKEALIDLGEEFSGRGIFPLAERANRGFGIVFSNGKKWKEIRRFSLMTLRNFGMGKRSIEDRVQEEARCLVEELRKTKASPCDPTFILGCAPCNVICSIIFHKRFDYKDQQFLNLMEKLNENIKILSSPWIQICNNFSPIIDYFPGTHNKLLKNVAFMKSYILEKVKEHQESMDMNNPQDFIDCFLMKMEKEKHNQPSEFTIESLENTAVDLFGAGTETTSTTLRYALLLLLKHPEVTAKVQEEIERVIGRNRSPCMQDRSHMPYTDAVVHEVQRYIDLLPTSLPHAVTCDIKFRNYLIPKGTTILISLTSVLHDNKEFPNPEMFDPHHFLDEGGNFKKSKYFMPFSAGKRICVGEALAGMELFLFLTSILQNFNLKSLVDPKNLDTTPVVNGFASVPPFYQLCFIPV
Series [4] addresses CYP1A2 (Homo sapiens, UniProt P05177). Put plainly: P450 interactions: CYP1A2 inhibition. As to conditions: human cytochromes P450. It counts as in vitro ADME.
Text: as §1

Series [5] concerns db/db mouse. As to the kind of experiment: Blood glucose level determination in db/db mouse. As to conditions: compound intraperitoneally, with or without 0.01U insulin s.c.; 0-4 hr (FIGS. 8 and 9). The class given is in vivo. Here is the method: Blood Glucose Level Determination in db/db Mouse.
An accepted model for Type 2 diabetes which has been used to establish the potential anti-diabetic activity of compounds is the db/db mouse. Seven to 9 week old male db/db mice (Jackson Laboratories, Bar Harbor, Me.), were used to the study of the effects of compounds on blood glucose levels. Animals were kept in a 12 h/12 h light/dark cycle, and experiments were initiated immediately after the dark period (7:00 a.m.). Food was removed at this time and returned after the final blood glucose measurement was taken.
Insulin (0.5U/ml, Humulin R, Catalog HI-201, Lilly, Indianapolis, Ind.) was prepared by diluting 100U/mL stock insulin 1:200 with PBS (phosphate buffered saline, Gibco, BRL). Compounds were prepared in a vehicle of either PBS or 20% DMSO in PBS.
Five to 10 animals (average weight 40–50 g) were used in each treatment condition. The animals were injected subcutaneously with either 0.01U insulin in PBS or PBS alone, followed by 0.1 mL of compound or its vehicle delivered intraperitoneally. Blood samples were taken 0 min, 15 min, 30 min, 1 hr, 2 hr and 4 hr after the administration of the drug or vehicle by tail bleeding. Glucose measurements were made with a Glucometer and Glucose strips (Bayer). […]

Chain of CYP1A2 (P05177 whole entry): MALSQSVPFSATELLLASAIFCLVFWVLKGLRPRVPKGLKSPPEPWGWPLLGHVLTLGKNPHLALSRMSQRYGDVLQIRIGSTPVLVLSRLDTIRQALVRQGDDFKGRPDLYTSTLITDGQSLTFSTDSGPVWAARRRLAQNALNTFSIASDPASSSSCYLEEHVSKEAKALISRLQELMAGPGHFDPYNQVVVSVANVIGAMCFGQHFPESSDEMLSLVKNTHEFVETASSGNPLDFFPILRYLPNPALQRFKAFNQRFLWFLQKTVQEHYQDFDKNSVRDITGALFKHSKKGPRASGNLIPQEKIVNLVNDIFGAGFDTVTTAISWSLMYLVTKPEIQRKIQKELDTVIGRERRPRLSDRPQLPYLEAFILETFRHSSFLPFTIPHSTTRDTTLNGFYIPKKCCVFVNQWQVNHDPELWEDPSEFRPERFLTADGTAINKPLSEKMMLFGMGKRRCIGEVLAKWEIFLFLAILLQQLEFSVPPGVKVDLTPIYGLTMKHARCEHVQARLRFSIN
T1 sequence (P00533 25-1210): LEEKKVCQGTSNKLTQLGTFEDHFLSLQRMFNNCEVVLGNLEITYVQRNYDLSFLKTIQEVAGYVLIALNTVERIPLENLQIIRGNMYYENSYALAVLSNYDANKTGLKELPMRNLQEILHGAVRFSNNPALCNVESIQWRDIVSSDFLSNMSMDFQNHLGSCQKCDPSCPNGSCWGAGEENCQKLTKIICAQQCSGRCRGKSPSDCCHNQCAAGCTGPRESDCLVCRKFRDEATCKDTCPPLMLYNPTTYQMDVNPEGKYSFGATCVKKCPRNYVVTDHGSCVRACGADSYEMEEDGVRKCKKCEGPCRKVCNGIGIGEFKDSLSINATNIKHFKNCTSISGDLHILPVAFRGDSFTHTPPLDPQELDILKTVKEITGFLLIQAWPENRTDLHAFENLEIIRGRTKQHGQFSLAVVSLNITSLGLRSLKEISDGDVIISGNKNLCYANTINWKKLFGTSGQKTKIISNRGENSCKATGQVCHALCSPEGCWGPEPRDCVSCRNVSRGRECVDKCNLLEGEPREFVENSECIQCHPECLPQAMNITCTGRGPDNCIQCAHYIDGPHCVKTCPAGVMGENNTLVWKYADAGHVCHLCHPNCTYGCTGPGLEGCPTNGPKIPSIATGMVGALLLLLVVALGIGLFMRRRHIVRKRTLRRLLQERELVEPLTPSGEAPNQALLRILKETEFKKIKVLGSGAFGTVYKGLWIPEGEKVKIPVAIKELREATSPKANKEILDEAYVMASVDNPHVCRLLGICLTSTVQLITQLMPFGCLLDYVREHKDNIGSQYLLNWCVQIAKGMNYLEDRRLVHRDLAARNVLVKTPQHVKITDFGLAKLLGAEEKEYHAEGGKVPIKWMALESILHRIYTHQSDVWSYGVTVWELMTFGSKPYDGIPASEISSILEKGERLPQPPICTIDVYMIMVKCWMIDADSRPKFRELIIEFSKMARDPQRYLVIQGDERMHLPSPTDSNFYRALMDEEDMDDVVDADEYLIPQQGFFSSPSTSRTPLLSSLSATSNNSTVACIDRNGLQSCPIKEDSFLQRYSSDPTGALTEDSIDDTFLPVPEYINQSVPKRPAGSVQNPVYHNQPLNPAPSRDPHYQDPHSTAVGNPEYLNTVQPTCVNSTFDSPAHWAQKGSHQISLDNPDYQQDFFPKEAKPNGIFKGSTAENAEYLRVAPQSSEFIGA

As to `O=C(Nc1ccc2c(O)cc(S(=O)(=O)Nc3cccc(S(=O)(=O)O)c3)cc2c1)Nc1ccc2c(O)cc(S(=O)(=O)Nc3cccc(S(=O)(=O)O)c3)cc2c1` [Compound 15, 3-{[(4-hydroxy-7-{[N-(5-hydroxy-7-{[(3-sulfophenyl)amino]sulfonyl}(2-naphthyl))carbamoyl]amino}-2-naphthyl)sulfonyl]amino}benzenesulfonic acid], the “phosphorylation of EGFR” value in series [1] is reported as “did not increase the phosphorylation of EGFR”. For the same compound, in series [2], the “phosphorylation of the IGF-1 receptor” value is “not to increase the phosphorylation”. Moreover, the “inhibition of catalytic activity of CYP2C9” value in series [3] is “did not inhibit”. The “inhibition of catalytic activity of CYP1A2” value in series [4] is “did not inhibit”. Further, in series [5], the “blood glucose levels in db/db mice” value was “acts in an insulin-independent manner to lower blood glucose levels”.
